Laboratory results as given in US4983602A, “3'-hydroxybenzoxazinorifamycin derivative, process for preparing the same and antibacterial agent containing the same” (Kanegafuchi Kagaku Kogyo Kabushiki Kaisha, priority 1988, dated 1991).
≈ marks a conversion by molar mass, not a printed value.

Assays:
[1] = tested on: Micrococcus luteus IFO 12708; experiment: Minimal inhibitory concentration, standard method of Japan Society of Chemotherapy; type: cell-based; conditions: IFO12708
[2] = tested on: Mycobacterium tuberculosis H37 Rv; experiment: Survival of mice infected with tuberculosis, groups of 10 (Tables 4 and 5); conditions: oral, 200 μg/mouse; for dead mice: fortieth day
[3] = tested on: Mycobacterium tuberculosis H37 Rv; experiment: Minimal inhibitory concentration against a tubercle bacillus; conditions: Kirchner liquid medium containing 10% bovine serum, 37° C., 4 weeks
[4] = tested on: Klebsiella pneumoniae IFO 3512; experiment: Minimal inhibitory concentration, standard method of Japan Society of Chemotherapy; type: cell-based; conditions: IFO3512
[5] = tested on: Bacillus subtilis IFO 3134; experiment: as above; type: cell-based; conditions: IFO3134
[6] = tested on: Staphylococcus aureus IFO 12732; experiment: as above; type: cell-based; conditions: IFO12732
[7] = tested on: Mycobacterium smegmatis ATCC 607; experiment: as above; type: cell-based; conditions: Mycolicibacterium smegmatis, ATCC607
[8] = tested on: Escherichia coli IFO 12734; experiment: as above; type: cell-based; conditions: IFO12734
[9] = tested on: Mycobacterium tuberculosis H37 Rv; experiment: Therapeutic effect on mice infected with tuberculosis, groups of 20 (FIG. 1); conditions: oral, 200 μg/mouse once a day, six days a week

| Structure (SMILES) | MIC [1] | Survival rate ([2]; Table 5, control 0%) | dead mice ([2]; Table 5 test) | Minimal inhibitory concentration [3] | MIC [4] | MIC [5] | MIC [6] | MIC [7] | MIC [8] | Survival rate ([2]; Table 4, control 30%) | dead mice ([2]; Table 4 test) | therapeutic effect as compared with rifampicin (and derivative A) [9] |
| --- | --- | --- | --- | --- | --- | --- | --- | --- | --- | --- | --- | --- |
| CCCCN1CCN(c2cc(O)c3nc4c5c6c7c(C)c(O)c5c(=O)c(c-4oc3c2)NC(=O)C(C)=CC=CC(C)C(O)C(C)C(O)C(C)C(OC(C)=O)C(C)C(OC)C=COC(C)(O7)C6=O)CC1 (stereo not drawn) [Derivative No. 1] | ≤ 0.02 µg/mL | 100% | there was not observed any dead mouse | 0.035 µg/mL (≈ 0.0372 µM) | > 10 µg/mL | ≤ 0.02 µg/mL | ≤ 0.02 µg/mL | 5 µg/mL (≈ 5.31 µM) | > 10 µg/mL | – | – | – |
| COC1C=COC2(C)Oc3c(C)c(O)c4c(=O)c(c5oc6cc(N7CCN(CC(C)C)CC7)cc(O)c6nc-5c4c3C2=O)NC(=O)C(C)=CC=CC(C)C(O)C(C)C(O)C(C)C(OC(C)=O)C1C (stereo not drawn) [Derivative No. 2] | ≤ 0.02 µg/mL | – | – | 0.017 µg/mL (≈ 0.0181 µM) | > 10 µg/mL | 0.04 µg/mL (≈ 0.0425 µM) | ≤ 0.02 µg/mL | 2.5 µg/mL (≈ 2.66 µM) | > 10 µg/mL | 100% | there was not observed any dead mouse | excellent therapeutic effect as compared with rifampicin |
| COC1C=COC2(C)Oc3c(C)c(O)c4c(=O)c(c5oc6cc(N7CCN(CC8CC8)CC7)cc(O)c6nc-5c4c3C2=O)NC(=O)C(C)=CC=CC(C)C(O)C(C)C(O)C(C)C(OC(C)=O)C1C (stereo not drawn) [Derivative No. 3] | ≤ 0.02 µg/mL | – | – | 0.017 µg/mL (≈ 0.0181 µM) | > 10 µg/mL | ≤ 0.02 µg/mL | ≤ 0.02 µg/mL | 2.5 µg/mL (≈ 2.66 µM) | > 10 µg/mL | 100% | there was not observed any dead mouse | – |
| CCC(C)N1CCN(c2cc(O)c3nc4c5c6c7c(C)c(O)c5c(=O)c(c-4oc3c2)NC(=O)C(C)=CC=CC(C)C(O)C(C)C(O)C(C)C(OC(C)=O)C(C)C(OC)C=COC(C)(O7)C6=O)CC1 (stereo not drawn) [Derivative No. 4] | ≤ 0.02 µg/mL | 100% | there was not observed any dead mouse | 0.017 µg/mL (≈ 0.0181 µM) | > 10 µg/mL | ≤ 0.02 µg/mL | ≤ 0.02 µg/mL | 1.25 µg/mL (≈ 1.33 µM) | > 10 µg/mL | – | – | – |
| COC1C=COC2(C)Oc3c(C)c(O)c4c(=O)c(c5oc6cc(N7CCN(CCC(C)C)CC7)cc(O)c6nc-5c4c3C2=O)NC(=O)C(C)=CC=CC(C)C(O)C(C)C(O)C(C)C(OC(C)=O)C1C (stereo not drawn) [Derivative No. 5] | ≤ 0.02 µg/mL | – | – | 0.07 µg/mL (≈ 0.0733 µM) | > 10 µg/mL | 0.16 µg/mL (≈ 0.168 µM) | ≤ 0.02 µg/mL | 5 µg/mL (≈ 5.23 µM) | > 10 µg/mL | 100% | there was not observed any dead mouse | – |
| COC1C=COC2(C)Oc3c(C)c(O)c4c(=O)c(c5oc6cc(N7CCN(C(C)(C)C)CC7)cc(O)c6nc-5c4c3C2=O)NC(=O)C(C)=CC=CC(C)C(O)C(C)C(O)C(C)C(OC(C)=O)C1C (stereo not drawn) [Derivative No. 6] | ≤ 0.02 µg/mL | 100% | there was not observed any dead mouse | 0.008 µg/mL (≈ 0.0085 µM) | > 10 µg/mL | ≤ 0.02 µg/mL | ≤ 0.02 µg/mL | 1.25 µg/mL (≈ 1.33 µM) | > 10 µg/mL | – | – | – |
| C=CCN1CCN(c2cc(O)c3nc4c5c6c7c(C)c(O)c5c(=O)c(c-4oc3c2)NC(=O)C(C)=CC=CC(C)C(O)C(C)C(O)C(C)C(OC(C)=O)C(C)C(OC)C=COC(C)(O7)C6=O)CC1 (stereo not drawn) [Derivative No. 7] | ≤ 0.02 µg/mL | – | – | 0.035 µg/mL (≈ 0.0378 µM) | > 10 µg/mL | 0.04 µg/mL (≈ 0.0432 µM) | ≤ 0.02 µg/mL | 2.5 µg/mL (≈ 2.7 µM) | > 10 µg/mL | 100% | there was not observed any dead mouse | – |
| C=CCCN1CCN(c2cc(O)c3nc4c5c6c7c(C)c(O)c5c(=O)c(c-4oc3c2)NC(=O)C(C)=CC=CC(C)C(O)C(C)C(O)C(C)C(OC(C)=O)C(C)C(OC)C=COC(C)(O7)C6=O)CC1 (stereo not drawn) [Derivative No. 8] | ≤ 0.02 µg/mL | 100% | there was not observed any dead mouse | 0.017 µg/mL (≈ 0.0181 µM) | > 10 µg/mL | ≤ 0.02 µg/mL | ≤ 0.02 µg/mL | 2.5 µg/mL (≈ 2.66 µM) | > 10 µg/mL | – | – | – |
| COC1C=COC2(C)Oc3c(C)c(O)c4c(=O)c(c5oc6cc(N7CCN(CC=C(C)C)CC7)cc(O)c6nc-5c4c3C2=O)NC(=O)C(C)=CC=CC(C)C(O)C(C)C(O)C(C)C(OC(C)=O)C1C (stereo not drawn) [Derivative No. 9] | ≤ 0.02 µg/mL | – | – | 0.035 µg/mL (≈ 0.0367 µM) | > 10 µg/mL | 0.08 µg/mL (≈ 0.0839 µM) | ≤ 0.02 µg/mL | 2.5 µg/mL (≈ 2.62 µM) | > 10 µg/mL | 100% | there was not observed any dead mouse | – |
| COC1C=COC2(C)Oc3c(C)c(O)c4c(=O)c(c5oc6cc(N7CCN8CCCC8C7)cc(O)c6nc-5c4c3C2=O)NC(=O)C(C)=CC=CC(C)C(O)C(C)C(O)C(C)C(OC(C)=O)C1C (stereo not drawn) [Derivative No. 10] | ≤ 0.02 µg/mL | – | – | 0.15 µg/mL (≈ 0.162 µM) | 10 µg/mL (≈ 10.8 µM) | ≤ 0.02 µg/mL | ≤ 0.02 µg/mL | 2.5 µg/mL (≈ 2.7 µM) | 10 µg/mL (≈ 10.8 µM) | 100% | there was not observed any dead mouse | – |
| CO[C@H]1/C=C/O[C@@]2(C)Oc3c(C)c(O)c4c(O)c(c(/C=N/N5CCN(C)CC5)c(O)c4c3C2=O)NC(=O)/C(C)=C\C=C\[C@H](C)[C@H](O)[C@@H](C)[C@@H](O)[C@@H](C)[C@H](OC(C)=O)[C@@H]1C [Rifampicin, reference compound] | – | 40% | – | 0.6 µg/mL (≈ 0.729 µM) | – | – | – | – | – | 80% | – | – |
| COC1C=COC2(C)Oc3c(C)c(O)c4c(=O)c(c5oc6cc(N7CCCCC7)ccc6nc-5c4c3C2=O)NC(=O)C(C)=CC=CC(C)C(O)C(C)C(O)C(C)C(OC(C)=O)C1C (stereo not drawn) [derivative B] | – | – | – | – | – | – | – | – | – | – | – | inferior to rifampicin |
| CCc1c(N2CCCC2)ccc2nc3c4c5c6c(C)c(O)c4c(=O)c(c-3oc12)NC(=O)C(C)=CC=CC(C)C(O)C(C)C(O)C(C)C(OC(C)=O)C(C)C(OC)C=COC(C)(O6)C5=O (stereo not drawn) [derivative C] | – | – | – | – | – | – | – | – | – | – | – | inferior to rifampicin |
